This passage reports MBIC and MIC results from patent US20110098323A1, “INHIBITORS OF BACTERIAL BIOFILM FORMATION” (MICROBIOTIX, INC., priority 2009, published 2011).

Like-named read-outs stand apart in the source and are kept apart here.

Assay [1] relates to S. aureus ATCC 35556. In words: MBIC/MIC secondary assay. The class given is cell-based, Staphylococcus aureus. As to conditions: for MIC: Staphylococcus aureus, ATCC35556.
In assay [2] the test system is S. epidermidis 18972. In words: MBIC/MIC secondary assay (crystal violet biofilm staining / OD600 growth). The class given is cell-based, Staphylococcus epidermidis. To be noted: for MIC: Staphylococcus epidermidis. How it is done: (§1) Assays for detecting and measuring bacterial biofilm formation are known in the art. An example of a biofilm formation assay useful in detecting and characterizing biofilm inhibitor compounds is described in Example 1, infra. Briefly, bacterial cells are inoculated into growth medium in individual wells of a 96-well assay plate in the presence or absence of a compound (known biofilm inhibitor or test compound). After incubation for a specified time, growth medium and non-biofilm bacterial cells are removed from each of the wells. The bacterial cells in any biofilms that are adhered to the surface of a well are fixed by addition of ethanol. The ethanol is removed, and the fixed biofilm bacteria cells are stained with crystal violet (CV). The intensity of CV staining is directly correlated with bacterial biofilm formation and is measured in the wells by reading the optical density at 600 nm (OD600). The difference in biofilm formation between untreated control and treated cultures provides an indication of relative biofilm inhibition activity (anti-biofilm activity). Use of different concentrations of an inhibitor in multiple and otherwise duplicate cultures permits determination of a compound's Minimal Biofilm Inhibitory Concentration (MBIC), which is defined herein as the lowest concentration of a compound that inhibits biofilm formation by at least 80% (i.e., ≧80%) compared to untreated control cultures.
A higher throughput was achieved by formatting the assay for use in flat-bottomed 96-well assay plates (Costar 3590 assay plates, Corning Life Sciences, Lowell, Mass.). The biofilm cultures grew on the bottoms of each well in a surface attached mode. In each assay plate, columns 1 and 12 contained untreated cultures, which served as negative controls (0% biofilm inhibition). Each of the assay wells in columns 2-11 contained a unique small molecule from the Microbiotix Screening Library (MSL) at a final concentration of 100 μM. Assay plates were inoculated with 200 μl/well of a culture of Staphylococcus pidermidis 18972 in 0.5×Tryptic Soy Broth (TSB; Becton Dickinson, Franklin Lakes, N.J.) in which the concentration of glucose was adjusted to 0.25% (w/v). The bacterial inocula were prepared by making a 1:100 dilution of an overnight culture grown in TSB in the media used for the screen. After inoculation, assay plates were sealed with foil tape and incubated at 37° C. for 18-20 hours (h). The optical density at 600 nm (OD600) was measured for each well using a VICTOR2V™ multiplate reader (Perkin Elmer, Waltham, Mass.) in order to quantify overall bacterial growth. The assay plates were processed to remove bacterial growth media and non-biofilm cells from the bottom of each assay well. This was accomplished by using a BioTek ELx405™ plate washer (BioTek Instruments, Inc., Winooski, Vt.). Biofilm bacteria were fixed by addition of 50 μl of 95% ethanol for 30 minutes (min). The ethanol was removed, and the fixed biofilm cultures were stained with 50 μl of 0.06% crystal violet (CV) for 60 min. Excess CV was removed by repeated washes using the BioTek ELx405™ plate washer. The amount of CV bound to each assay well was quantified by measuring OD600 using a VICTOR2V™ plate reader (Perkin Elmer).
A secondary assay provided a quantitative measure of both anti-biofilm activity and antibacterial activity in terms of the Minimal Biofilm Inhibitory Concentration (MBIC) and the Minimal Inhibitory Concentration (MIC), respectively. The MBIC and MIC are defined as the lowest compound concentrations that inhibit biofilm formation and bacterial growth, respectively, by at least 80% (i.e., ≧80%). The MBIC/MIC assay is formatted in a manner that is similar to the Microbroth dilution assays described by the Clinical and Laboratory Standards Institute (CLSI; formerly NCCLS) in protocol M7-A7. The growth conditions were optimized for biofilm growth in 96-well assay plates such that the resulting CV staining was within the linear range of detection. […]

Assay [3] concerns S. aureus strain NRS-77. Put plainly: MBIC/MIC secondary assay. The class given is cell-based, Staphylococcus aureus. To be noted: for MIC: Staphylococcus aureus, NRS77. Here is the method:
as §1, with “cultures. […]” for “cultures.”
A secondary assay provided a quantitative measure of both anti-biofilm activity and antibacterial activity in terms of the Minimal Biofilm Inhibitory Concentration (MBIC) and the Minimal Inhibitory Concentration (MIC), respectively. The MBIC and MIC are defined as the lowest compound concentrations that inhibit biofilm formation and bacterial growth, respectively, by at least 80% (i.e., ≧80%). The MBIC/MIC assay is formatted in a manner that is similar to the Microbroth dilution assays described by the Clinical and Laboratory Standards Institute (CLSI; formerly NCCLS) in protocol M7-A7. The growth conditions were optimized for biofilm growth in 96-well assay plates such that the resulting CV staining was within the linear range of detection. Therefore, the MBIC/MIC assay provided a stringent measure of anti-biofilm activity.
The assay was adapted for several biofilm-forming strains of S. epidermidis, S. aureus, Enterococcus faecalis, and Pseudomonas aeruginosa. Briefly, 96-well assay plates contained a two-fold dilution series for up to 8 compounds (one compound/row) and untreated controls (concentration range of 0.2 μM-100 μM). The assay plates were inoculated with the test bacterial species, e.g., S. epidermidis 18972 (0.5×TSB, 0.25% glucose) or S. aureus ATCC 35556 (0.5×TSB, 1% glucose). The inocula were prepared by diluting an overnight culture 1:100 in fresh media, which corresponds to approximately 5×10^6 cells/well. After inoculation, the assay plates were sealed with foil tape and incubated for 18 h-20 h at 37° C. The assay plates were processed, and the percent inhibition of growth (% INH-Growth) and percent inhibition of biofilm formation (% INH-Biofilm) were calculated as described above. […] Compounds with an MBIC≦10 μM and an MIC/MBIC ratio≧8 for either S. epidermidis or S. aureus were designated as validated hits.
Minimal Biofilm Inhibitory Concentration (MBIC) and Minimal Inhibitory Concentration (MIC) of the compounds in Table 3 were determined against various strains of biofilm-forming bacteria.

Where [4] appears, read: S. aureus strain 35556, Table 5.
Where [5] appears, read: S. epidermidis strain 18972, Table 4.

As to `CCOc1cc(/C=C2\SC(=S)N(c3ccc(F)cc3)C2=O)ccc1O` [Compound 4, 3-(4-fluorophenyl)-5-(3-ethoxy-4-hydroxybenzylidene)-2-thioxothiazolidin-4-one], the MBIC was 3.125 µM in assay [1] (S. aureus ATCC 35556, stated in text of Examples 5 and 6); 3.1 µM in assay [1] (setting [4]); 25 µM in assay [2] (setting [5]); 25 µM in assay [3] (S. aureus strain NRS-77). For the same compound, the MIC in assay [1], in assay [2] (18972) and in assay [3] was at least 100 µM in each case.
On to `CCOc1cc(/C=C2\SC(=S)N(c3cccc(F)c3)C2=O)ccc1O` [Compound 8, 3-(3-fluorophenyl)-5-(3-ethoxy-4-hydroxybenzylidene)-2-thioxothiazolidin-4-one], for which the results for the MBIC in assay [1] (setting [4]), in assay [2] (setting [5]) and in assay [3] (S. aureus strain NRS-77) were 6.3 µM, 50 µM and 25 µM, respectively. In addition, the MIC in assay [1], in assay [2] (18972) and in assay [3] was at least 100 µM throughout.
As for `C=CCOc1cc(/C=C2\SC(=S)N(c3ccc(F)cc3)C2=O)ccc1O` [Compound 29, 3-(4-fluorophenyl)-5-(3-allyloxy-4-hydroxybenzylidene)-2-thioxothiazolidin-4-one], the MBIC in assay [1] (setting [4]) is 3.1 µM; in assay [2] (setting [5]), 25 µM; in assay [3] (S. aureus strain NRS-77), 12.5 µM. Further, the MIC was at least 100 µM in assay [1] (S. aureus strain 35556, Table 5, read-out: MIC); at least 100 µM in assay [2] (S. epidermidis strain 18972, Table 4, read-out: MIC); at least 100 µM in assay [3] (S. aureus strain NRS-77, read-out: MIC).
As to `CCOc1cc(/C=C2\SC(=S)N(c3cccc(C#N)c3)C2=O)ccc1O` [Compound 34, 3-(3-cyanophenyl)-5-(3-ethoxy-4-hydroxybenzylidene)-2-thioxothiazolidin-4-one], the MBIC in assay [1] (setting [4]) stood at 1.6 µM; in assay [2] (setting [5]), 25 µM; in assay [3] (S. aureus strain NRS-77), 12.5 µM. In addition, the MIC in assay [1], in assay [2] (18972) and in assay [3] was at least 100 µM throughout.
Turning to `CCOc1cc(/C=C2\SC(=S)N(c3cccnc3)C2=O)ccc1O` [Compound 36, 3-(pyridin-3-yl)-5-(3-ethoxy-4-hydroxybenzylidene)-2-thioxothiazolidin-4-one], the MBIC in assay [1] (setting [4]), in assay [2] (setting [5]) and in assay [3] (S. aureus strain NRS-77) was 12.5 µM in each case. Further, the MIC in assay [1], in assay [2] (18972) and in assay [3] was at least 100 µM in each case.
On to `CCOc1cc(/C=C2\SC(=S)N(c3ccc(F)nc3)C2=O)ccc1O` [Compound 40, 3-(6-fluoropyridin-3-yl)-5-(3-ethoxy-4-hydroxybenzylidene)-2-thioxothiazolidin-4-one], for which the MBIC in assay [1] (setting [4]) stood at 6.3 µM; in assay [2] (setting [5]) it was 25 µM; in assay [3] (S. aureus strain NRS-77) it was 6.3 µM. The MIC in assay [1], in assay [2] (18972) and in assay [3] was at least 100 µM throughout.
